Measured values as given in publication PMC12514245, “Impaired migration and lung invasion of human melanoma by a novel small molecule targeting the transmembrane domain of death receptor p75^NTR” (EMBO Molecular Medicine, 2025).
Values joined by “and” are separate entries in the source; they are usually repeats but may differ in a detail not shown here. Identical values can stand only once.

Test system: A875 NT cells
Assay: Wound healing cell motility assay, A875 NT
Format: cell-based, human
Conditions: for Wound area, Mean: N=3; for Wound area (Fold), Mean / Wound area (Fold), individual replicates: 10uM; for Wound area (Fold): A875 NT, 1uM
Description: For wound healing assay, cells were grown until confluency and subjected to a wound across the cell mono-layer. Cells were then incubated with serum-free media either with DMSO or a small molecule (with or without 5 µM Q_VD_poH) and imaged at specific time-points. Cell migration is reflected as fold change in wound area over time.

[1] = 5μM Q_VD_poH + 10μM Div17E5, 0 hours
[2] = 5μM Q_VD_poH + 10μM Div17E5, 3 hours
[3] = 5μM Q_VD_poH + 10μM Div17E5, 6 hours
[4] = 5μM Q_VD_poH + 10μM Div17E5, 9 hours
[5] = 5μM Q_VD_poH + 10μM Div17E5, 12 hours
[6] = 5μM Q_VD_poH + 10μM Div17E5, 15 hours
[7] = 5μM Q_VD_poH + 10μM Div17E5, 18 hours
[8] = 5μM Q_VD_poH + 10μM Div17E5, 21 hours
[9] = 5μM Q_VD_poH + 10μM Div17E5, 24 hours

Oc1ccc(-c2cncc(Nc3ccc(Br)c(Cl)c3)n2)cc1 [Div17E5]
cell motility (wound healing): significantly impaired motility | Wound area, n1-n3 [1]: 1.151 Fold and 0.989 Fold and 0.859 Fold | Wound area, Mean [1]: 1.000 Fold | Wound area, n1-n3 [2]: 0.948 Fold and 1.003 Fold and 1.022 Fold | Wound area, Mean [2]: 0.991 Fold | Wound area, n1-n3 [3]: 0.944 Fold and 0.988 Fold and 1.047 Fold | Wound area, Mean [3]: 0.993 Fold | Wound area, n1-n3 [4]: 0.936 Fold and 0.934 Fold and 1.001 Fold | Wound area, Mean [4]: 0.957 Fold | Wound area, n1-n3 [5]: 0.937 Fold and 0.894 Fold and 1.002 Fold | Wound area, Mean [5]: 0.944 Fold | Wound area, n1-n3 [6]: 0.938 Fold and 0.874 Fold and 0.985 Fold | Wound area, Mean [6]: 0.932 Fold | Wound area, n1-n3 [7]: 0.920 Fold and 0.852 Fold and 0.976 Fold | Wound area, Mean [7]: 0.916 Fold | Wound area, n1-n3 [8]: 0.922 Fold and 0.829 Fold and 0.962 Fold | Wound area, Mean [8]: 0.904 Fold | Wound area, n1-n3 [9]: 0.916 Fold and 0.831 Fold and 0.939 Fold | Wound area, Mean [9]: 0.895 Fold | wound healing assay, comparison of Div17E5, MS_18 and MS_63 (10 µM): the better of the three | Wound area, Mean (10μM Div17E5, 0 hours): 1.000 Fold | Wound area, n1-n3 (10μM Div17E5, 3 hours): 1.026 Fold and 0.986 Fold and 1.104 Fold | Wound area, Mean (10μM Div17E5, 3 hours): 1.039 Fold | Wound area, n1-n3 (10μM Div17E5, 6 hours): 0.988 Fold and 0.956 Fold and 1.073 Fold | Wound area, Mean (10μM Div17E5, 6 hours): 1.006 Fold | Wound area, n1-n3 (10μM Div17E5, 9 hours): 0.922 Fold and 0.923 Fold and 1.017 Fold | Wound area, Mean (10μM Div17E5, 9 hours): 0.954 Fold | Wound area, n1-n3 (10μM Div17E5, 12 hours): 0.909 Fold and 0.918 Fold and 0.979 Fold | Wound area, Mean (10μM Div17E5, 12 hours): 0.935 Fold | Wound area, n1-n3 (10μM Div17E5, 15 hours): 0.913 Fold and 0.881 Fold and 0.951 Fold | Wound area, Mean (10μM Div17E5, 15 hours): 0.915 Fold | Wound area, n1-n3 (10μM Div17E5, 18 hours): 0.881 Fold and 0.866 Fold and 0.915 Fold | Wound area, Mean (10μM Div17E5, 18 hours): 0.887 Fold | Wound area, n1-n3 (10μM Div17E5, 21 hours): 0.886 Fold and 0.863 Fold and 0.915 Fold | Wound area, Mean (10μM Div17E5, 21 hours): 0.888 Fold | Wound area, n1-n3 (10μM Div17E5, 24 hours): 0.865 Fold and 0.854 Fold and 0.889 Fold | Wound area, Mean (10μM Div17E5, 24 hours): 0.870 Fold | Wound area (Fold), Mean (0 hours): 1 Fold | Wound area (Fold), individual replicates (0 hours): 1.000 Fold | Wound area (Fold), Mean (3 hours): 0.931 Fold | Wound area (Fold), individual replicates (3 hours): 0.928 Fold and 0.933 Fold | Wound area (Fold), Mean (6 hours): 0.912 Fold | Wound area (Fold), individual replicates (6 hours): 0.898 Fold and 0.926 Fold | Wound area (Fold), Mean (9 hours): 0.866 Fold | Wound area (Fold), individual replicates (9 hours): 0.856 Fold and 0.878 Fold | Wound area (Fold), Mean (12 hours): 0.895 Fold | Wound area (Fold), individual replicates (12 hours): 0.846 Fold and 0.944 Fold | Wound area (Fold), Mean (15 hours): 0.862 Fold | Wound area (Fold), individual replicates (15 hours): 0.814 Fold and 0.91 Fold | Wound area (Fold), Mean (18 hours): 0.863 Fold | Wound area (Fold), individual replicates (18 hours): 0.826 Fold and 0.899 Fold | Wound area (Fold), Mean (21 hours): 0.869 Fold | Wound area (Fold), individual replicates (21 hours): 0.805 Fold and 0.934 Fold | Wound area (Fold), Mean (24 hours): 0.869 Fold | Wound area (Fold), individual replicates (24 hours): 0.812 Fold and 0.927 Fold | Wound area (Fold) (0 h, Mean): 1.000 Fold | Wound area (Fold) (0 h, n1): 1.026 Fold | Wound area (Fold) (0 h, n2): 0.960 Fold | Wound area (Fold) (0 h, n3): 1.014 Fold | Wound area (Fold) (3 h, Mean): 0.953 Fold | Wound area (Fold) (3 h, n1): 0.950 Fold | Wound area (Fold) (3 h, n2): 0.945 Fold | Wound area (Fold) (3 h, n3): 0.963 Fold | Wound area (Fold) (6 h, Mean): 0.896 Fold | Wound area (Fold) (6 h, n1): 0.897 Fold | Wound area (Fold) (6 h, n2): 0.884 Fold | Wound area (Fold) (6 h, n3): 0.907 Fold | Wound area (Fold) (9 h, Mean): 0.858 Fold | Wound area (Fold) (9 h, n1): 0.855 Fold | Wound area (Fold) (9 h, n2): 0.847 Fold | Wound area (Fold) (9 h, n3): 0.872 Fold
